Reference: US6960574B2, “Antagonists of RF-amide neuropeptides” (University of Florida, priority 2002, dated 2005)
Peptide text beside a SMILES is read from it. * marks the point of attachment. Dansyl = CN(C)c1cccc2c(S(=O)(=O)*)cccc12

Each compound was assayed on receptor labeled by the radioiodinated analogue of 1 (4, [125I]-YLFQPQRF-NH2); neuropeptide FF receptor (assay: Competitive radioligand binding against 4 ([125I]Y8F-amide)). Conditions: mixture-based positional scanning; difference from averaged radioligand displacement of whole library (0); about 80 a.u. = 10-fold change in Ki.

| SMILES | Relative Binding Index (RBI) |
| --- | --- |
| CC(C)[C@H](NC(=O)[C@H](CCC(N)=O)NS(=O)(=O)c1cccc2c(N(C)C)cccc12)C(=O)N[C@@H](CCCNC(=N)N)C(N)=O [Dansyl-QVR-amide] (Dansyl-Gln-Val-Arg-NH2) | 17 a.u. |
| CSCC[C@H](NS(=O)(=O)c1cccc2c(N(C)C)cccc12)C(=O)N[C@H](C(=O)N[C@@H](CCCNC(=N)N)C(N)=O)[C@@H](C)O [Dansyl-MTR-amide] (Dansyl-Met-Thr-Arg-NH2) | −38 a.u. |
| CC[C@H](C)[C@H](NS(=O)(=O)c1cccc2c(N(C)C)cccc12)C(=O)N[C@@H](CC(N)=O)C(=O)N[C@@H](CCCNC(=N)N)C(N)=O [Dansyl-INR-amide] (Dansyl-Ile-Asn-Arg-NH2) | −10 a.u. |
| CN(C)c1cccc2c(S(=O)(=O)N[C@@H](CCC(N)=O)C(=O)N[C@@H](CCCCN)C(=O)N[C@@H](CCCNC(=N)N)C(N)=O)cccc12 [Dansyl-QKR-amide] (Dansyl-Gln-Lys-Arg-NH2) | 19 a.u. |
| CN(C)c1cccc2c(S(=O)(=O)N[C@@H](CCC(=O)O)C(=O)NCC(=O)N[C@@H](CCCNC(=N)N)C(N)=O)cccc12 [Dansyl-EGR-amide] (Dansyl-Glu-Gly-Arg-NH2) | 22 a.u. |
| CN(C)c1cccc2c(S(=O)(=O)N[C@@H](Cc3ccc(O)cc3)C(=O)N[C@@H](CO)C(=O)N[C@@H](CCCNC(=N)N)C(N)=O)cccc12 [Dansyl-YSR-amide] (Dansyl-Tyr-Ser-Arg-NH2) | 28 a.u. |
| CN(C)c1cccc2c(S(=O)(=O)N[C@@H](CCC(N)=O)C(=O)N[C@@H](Cc3c[nH]c4ccccc34)C(=O)N[C@@H](CCCNC(=N)N)C(N)=O)cccc12 [Dansyl-QWR-amide] (Dansyl-Gln-Trp-Arg-NH2) | 30 a.u. |
| CN(C)c1cccc2c(S(=O)(=O)N3CCC[C@H]3C(=O)N[C@@H](Cc3c[nH]c4ccccc34)C(=O)N[C@@H](CCCNC(=N)N)C(N)=O)cccc12 [Dansyl-PWR-amide] (Dansyl-Pro-Trp-Arg-NH2) | −39 a.u. |
| CN(C)c1cccc2c(S(=O)(=O)N[C@@H](CC(N)=O)C(=O)N[C@@H](CCCCN)C(=O)N[C@@H](CCCNC(=N)N)C(N)=O)cccc12 [Dansyl-NKR-amide] (Dansyl-Asn-Lys-Arg-NH2) | 10 a.u. |
| C[C@@H](O)[C@H](NS(=O)(=O)c1cccc2c(N(C)C)cccc12)C(=O)N[C@@H](Cc1ccc(O)cc1)C(=O)N[C@@H](CCCNC(=N)N)C(N)=O [Dansyl-TYR-amide] (Dansyl-Thr-Tyr-Arg-NH2) | −10 a.u. |
| CC[C@H](C)[C@H](NC(=O)[C@H](CC(C)C)NS(=O)(=O)c1cccc2c(N(C)C)cccc12)C(=O)N[C@@H](CCCNC(=N)N)C(N)=O [Dansyl-LIR-amide] (Dansyl-Leu-Ile-Arg-NH2) | −26 a.u. |
| CC(C)[C@H](NS(=O)(=O)c1cccc2c(N(C)C)cccc12)C(=O)N[C@@H](Cc1ccccc1)C(=O)N[C@@H](CCCNC(=N)N)C(N)=O [Dansyl-VFR-amide] (Dansyl-Val-Phe-Arg-NH2) | −6 a.u. |
| C[C@H](NC(=O)[C@H](Cc1ccc(O)cc1)NS(=O)(=O)c1cccc2c(N(C)C)cccc12)C(=O)N[C@@H](CCCNC(=N)N)C(N)=O [Dansyl-YAR-amide] (Dansyl-Tyr-Ala-Arg-NH2) | −42 a.u. |
| CN(C)c1cccc2c(S(=O)(=O)N[C@@H](CC(=O)O)C(=O)NCC(=O)N[C@@H](CCCNC(=N)N)C(N)=O)cccc12 [Dansyl-DGR-amide] (Dansyl-Asp-Gly-Arg-NH2) | 0 a.u. |
| CN(C)c1cccc2c(S(=O)(=O)N[C@@H](Cc3ccccc3)C(=O)NCC(=O)N[C@@H](CCCNC(=N)N)C(N)=O)cccc12 [Dansyl-FGR-amide] (Dansyl-Phe-Gly-Arg-NH2) | 15 a.u. |
